Assay results published in article PMC8717171 (Saudi Journal of Biological Sciences, 2021).
Values after ≈ are worked out from the molar mass of the structure shown. Values joined by “and” are separate entries in the source; they are usually repeats but may differ in a detail not shown here. Identical values can stand only once. Like-named read-outs stand apart in the source and are kept apart here.

Legend:
[1] = Antioxidant activity, DPPH free radical scavenging; assay type: biochemical; conditions: absorbance at 517 nm
[2] = system: non-enzymatic lipid peroxidation in rat brain homogenate; assay: In-vitro lipid peroxidation inhibition; conditions: Fe2+-ascorbate
mice = assay: Peripheral anti-nociception, acetic acid-induced writhing; assay type: in vivo, Mus musculus; conditions: for Number of Writhing (Mean ± SEM): counted for 15 min, n = 5
rat hind paw oedema = assay: Anti-inflammatory activity, carrageenan-induced rat hind paw oedema; assay type: in vivo, Sprague Dawley rat; conditions: test compounds 100 mg/kg; for Mean paw edema (volume in ml) ± SEM: n = 5
microbial strains = assay: Antimicrobial disc diffusion, all test strains together; assay type: cell-based
acetylcholinesterase = molecular target: T1, acetylcholinesterase (Rattus norvegicus, UniProt P37136); assay: In-vitro anti-acetylcholinesterase activity; assay type: biochemical
T1 sequence (P37136 32-614): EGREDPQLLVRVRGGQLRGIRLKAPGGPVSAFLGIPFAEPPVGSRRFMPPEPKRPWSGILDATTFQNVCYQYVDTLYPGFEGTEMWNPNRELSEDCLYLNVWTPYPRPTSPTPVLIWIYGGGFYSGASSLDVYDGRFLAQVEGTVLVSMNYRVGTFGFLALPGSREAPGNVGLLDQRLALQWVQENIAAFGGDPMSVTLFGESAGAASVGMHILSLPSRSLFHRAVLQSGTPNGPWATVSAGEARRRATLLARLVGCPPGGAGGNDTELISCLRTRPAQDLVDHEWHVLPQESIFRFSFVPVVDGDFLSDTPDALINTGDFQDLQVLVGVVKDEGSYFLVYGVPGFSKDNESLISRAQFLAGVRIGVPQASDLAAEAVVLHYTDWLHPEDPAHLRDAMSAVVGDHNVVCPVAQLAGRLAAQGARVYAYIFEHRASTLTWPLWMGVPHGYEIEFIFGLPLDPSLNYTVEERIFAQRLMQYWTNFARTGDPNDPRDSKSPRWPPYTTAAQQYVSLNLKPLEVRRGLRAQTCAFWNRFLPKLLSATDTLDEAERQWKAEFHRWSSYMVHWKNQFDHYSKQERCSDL

butyrylcholinesterase = butyrylcholinesterase (Rattus norvegicus, UniProt Q9JKC1); assay: In-vitro anti-butyrylcholinesterase activity; assay type: biochemical
Sequence of butyrylcholinesterase (Q9JKC1 24-597): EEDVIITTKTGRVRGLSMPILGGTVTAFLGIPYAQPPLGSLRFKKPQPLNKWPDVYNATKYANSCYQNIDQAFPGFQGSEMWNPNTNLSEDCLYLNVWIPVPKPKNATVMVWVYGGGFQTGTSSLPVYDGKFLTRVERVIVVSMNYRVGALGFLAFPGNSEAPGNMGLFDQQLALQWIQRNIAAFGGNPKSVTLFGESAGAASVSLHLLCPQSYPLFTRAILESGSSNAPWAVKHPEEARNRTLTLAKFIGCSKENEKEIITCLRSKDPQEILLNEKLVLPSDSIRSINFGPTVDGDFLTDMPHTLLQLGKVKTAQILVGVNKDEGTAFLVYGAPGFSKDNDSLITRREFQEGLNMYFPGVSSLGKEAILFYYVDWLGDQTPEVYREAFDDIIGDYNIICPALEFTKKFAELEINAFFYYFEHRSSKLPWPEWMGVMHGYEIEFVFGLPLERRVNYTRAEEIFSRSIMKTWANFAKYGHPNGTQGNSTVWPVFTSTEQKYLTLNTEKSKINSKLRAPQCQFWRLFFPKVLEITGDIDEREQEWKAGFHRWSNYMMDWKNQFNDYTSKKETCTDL

Swiss-albino mice = conditions: mouse, in vivo, po; for Reaction time: 25 mg/kg
Bacillus cereus = assay: Disc diffusion; assay type: cell-based; conditions: standard Ciprofloxacin 5 µg/disc
Bacillus megaterium = assay: Disc diffusion; assay type: cell-based; conditions: standard Ciprofloxacin 5 µg/disc
Bacillus subtilis = assay: Disc diffusion; assay type: cell-based; conditions: standard Ciprofloxacin 5 µg/disc
Sarcina lutea = assay: Disc diffusion; assay type: cell-based; conditions: standard Ciprofloxacin 5 µg/disc
Staphylococcus aureus = assay: Disc diffusion; assay type: cell-based; conditions: standard Ciprofloxacin 5 µg/disc
Escherichia coli = assay: Disc diffusion; assay type: cell-based; conditions: standard Ciprofloxacin 5 µg/disc
Pseudomonas aeruginosa = assay: Disc diffusion; assay type: cell-based; conditions: standard Ciprofloxacin 5 µg/disc
Salmonella paratyphi = assay: Disc diffusion; assay type: cell-based; conditions: standard Ciprofloxacin 5 µg/disc
Salmonella typhi = assay: Disc diffusion; assay type: cell-based; conditions: standard Ciprofloxacin 5 µg/disc
Shigella boydii = assay: Disc diffusion; assay type: cell-based; conditions: standard Ciprofloxacin 5 µg/disc
Shigella dysenteriae = assay: Disc diffusion; assay type: cell-based; conditions: standard Ciprofloxacin 5 µg/disc
Vibrio mimicus = assay: Disc diffusion; assay type: cell-based; conditions: standard Ciprofloxacin 5 µg/disc
Vibrio parahaemolyticus = assay: Disc diffusion; assay type: cell-based; conditions: standard Ciprofloxacin 5 µg/disc
Saccharomyces cerevisiae = assay: Disc diffusion; assay type: cell-based; conditions: standard Ciprofloxacin 5 µg/disc
Candida albicans = assay: Disc diffusion; assay type: cell-based; conditions: standard Ciprofloxacin 5 µg/disc
Aspergillus niger = assay: Disc diffusion; assay type: cell-based; conditions: standard Ciprofloxacin 5 µg/disc

Compound | IC50 (antioxidant activity, DPPH scavenging) [1] | IC50 (lipid peroxidation inhibition) [2] | % of Inhibition of Writhing (mice; 25 mg/kg) | Number of Writhing (Mean ± SEM) (mice; 25 mg/kg) | % of Inhibition of Writhing (mice; 50 mg/kg) | Number of Writhing (Mean ± SEM) (mice; 50 mg/kg) | % Paw edema inhibition (rat hind paw oedema; 1st hour) | Mean paw edema (volume in ml) ± SEM (rat hind paw oedema; 1st hour) | % Paw edema inhibition (rat hind paw oedema; 2nd hour) | Mean paw edema (volume in ml) ± SEM (rat hind paw oedema; 2nd hour) | % Paw edema inhibition (rat hind paw oedema; 3rd hour) | Mean paw edema (volume in ml) ± SEM (rat hind paw oedema; 3rd hour) | % Paw edema inhibition (rat hind paw oedema; 4th hour) | Mean paw edema (volume in ml) ± SEM (rat hind paw oedema; 4th hour) | antimicrobial activity (in words) (microbial strains) | IC50 (acetylcholinesterase) | also measured
Cc1cc(C(C)(C)C)c(O)c(C(C)(C)C)c1 [BHT, tert-butyl-1-hydroxytoluene, reference compound] | 14.44 µg/mL (≈ 65.5 µM) |  |  |  |  |  |  |  |  |  |  |  |  |  |  |  | 
O.Oc1cc(O)c2c(c1)O[C@H](c1ccc(O)c(O)c1)[C@@H](O)C2 [Catechin, reference compound] |  | 59.36 µg/mL |  |  |  |  |  |  |  |  |  |  |  |  |  |  | 
Oc1ccc(Cn2c(-c3ccc(O)cc3)nc3ccccc32)cc1 [Compound 3a, 1-(4-hydroxybenzyl)-2-(4-hydroxyphenyl)-1H-benzimidazole] | 16.73 µg/mL (≈ 52.9 µM) | 75.53 µg/mL (≈ 239 µM) | 49.25% | 13.6 ± 0.430 | 29.10% | 19.0 ± 1.649 | 34.75% | 0.768 ± 0.0575 mL | 36.07% | 0.78 ± 0.023 mL | 38.93% | 0.80 ± 0.043 mL | 37.59% | 0.88 ± 0.034 mL | did not show any antimicrobial activity | 231 µM | IC50 (butyrylcholinesterase): 49.1 µM
Clc1ccc(Cn2c(-c3ccc(Cl)cc3)nc3ccccc32)cc1 [Compound 3b, 1-(4-chlorobenzyl)-2-(4-chlorophenyl)-1H-benzimidazole] |  |  | 26.87% | 19.6 ± 0.797 | 13.43% | 23.2 ± 0.464 | 38.98% | 0.724 ± 0.057 mL | 40.16% | 0.73 ± 0.029 mL | 41.98% | 0.76 ± 0.048 mL | 44.68% | 0.78 ± 0.056 mL | did not show any antimicrobial activity | 187 µM | IC50 (butyrylcholinesterase): 66.3 µM
COc1ccc(Cn2c(-c3ccc(OC)cc3)nc3ccccc32)cc1 [Compound 3c, 1-(4-methoxybenzyl)-2-(4-methoxyphenyl)-1H-benzimidazole] | 634.22 µg/mL (≈ 1840 µM) |  | 54.10% | 12.3 ± 0.831 | 42.54% | 15.4 ± 0.697 | 35.59% | 0.758 ± 0.035 mL | 35.25% | 0.79 ± 0.043 mL | 37.40% | 0.82 ± 0.022 mL | 37.59% | 0.88 ± 0.046 mL | did not show any antimicrobial activity |  | Reaction time (Swiss-albino mice): 9.8 ± 0.86 and 10.2 ± 0.86 and 10.6 ± 0.68 and 11.8 ± 0.66; % Elongation value (Swiss-albino mice; 50 mg/kg): 42.86% and 44.19% and 50% and 44.23%
Clc1ccc(-c2nc3ccccc3[nH]2)cc1 [Compound 4, 2-(4-chlorophenyl)-1H-benzimidazole] | 114.18 µg/mL (≈ 499 µM) | 98.55 µg/mL (≈ 431 µM) | 2.99% | 26.0 ± 1.001 | 13.81% | 23.1 ± 0.843 | 28.81% | 0.838 ± 0.051 mL | 27.87% | 0.88 ± 0.027 mL | 29.77% | 0.92 ± 0.017 mL | 36.88% | 0.89 ± 0.033 mL |  |  | Reaction time (Swiss-albino mice): 9.4 ± 0.93 and 8.8 ± 1.24 and 10.6 ± 0.68 and 12.6 ± 0.93; peripheral analgesic activity (in words) (mice; 25 mg/kg and 50 mg/kg): did not show any peripheral analgesic activity; Diameter of zone of inhibition (mm) (Bacillus cereus): 7 mm; Diameter of zone of inhibition (mm) (Bacillus megaterium): 9 mm; Diameter of zone of inhibition (mm) (Bacillus subtilis): 9 mm; Diameter of zone of inhibition (mm) (Sarcina lutea): 7 mm; Diameter of zone of inhibition (mm) (Staphylococcus aureus): 0 mm; Diameter of zone of inhibition (mm) (Escherichia coli): 10 mm; Diameter of zone of inhibition (mm) (Pseudomonas aeruginosa): 8 mm; Diameter of zone of inhibition (mm) (Salmonella paratyphi): 0 mm; Diameter of zone of inhibition (mm) (Salmonella typhi): 9 mm; Diameter of zone of inhibition (mm) (Shigella boydii): 9 mm; Diameter of zone of inhibition (mm) (Shigella dysenteriae): 8 mm; Diameter of zone of inhibition (mm) (Vibrio mimicus): 0 mm; Diameter of zone of inhibition (mm) (Vibrio parahaemolyticus): 7 mm; Diameter of zone of inhibition (mm) (Saccharomyces cerevisiae): 9 mm; Diameter of zone of inhibition (mm) (Candida albicans): 0 mm; Diameter of zone of inhibition (mm) (Aspergillus niger): 10 mm
c1ccc(COCc2nc3ccccc3[nH]2)cc1 [Compound 6, 2-((benzyloxy)-methyl)-1H-benzimidazole] | 579.19 µg/mL (≈ 2430 µM) |  | 37.69% | 16.7 ± 0.889 | 55.60% | 11.9 ± 0.458 | 22.88% | 0.906 ± 0.047 mL | 23.77% | 0.93 ± 0.028 mL | 25.19% | 0.98 ± 0.018 mL | 31.91% | 0.96 ± 0.039 mL |  | 124 µM | Diameter of zone of inhibition (mm) (Bacillus cereus): 8 mm; Diameter of zone of inhibition (mm) (Bacillus megaterium): 7 mm; Diameter of zone of inhibition (mm) (Bacillus subtilis): 10 mm; Diameter of zone of inhibition (mm) (Sarcina lutea): 7 mm; Diameter of zone of inhibition (mm) (Staphylococcus aureus): 7 mm; Diameter of zone of inhibition (mm) (Escherichia coli): 0 mm; Diameter of zone of inhibition (mm) (Pseudomonas aeruginosa): 7 mm; Diameter of zone of inhibition (mm) (Salmonella paratyphi): 8 mm; Diameter of zone of inhibition (mm) (Salmonella typhi): 8 mm; Diameter of zone of inhibition (mm) (Shigella boydii): 7 mm; Diameter of zone of inhibition (mm) (Shigella dysenteriae): 0 mm; Diameter of zone of inhibition (mm) (Vibrio mimicus): 9 mm; Diameter of zone of inhibition (mm) (Vibrio parahaemolyticus): 10 mm; Diameter of zone of inhibition (mm) (Saccharomyces cerevisiae): 7 mm; Diameter of zone of inhibition (mm) (Candida albicans): 0 mm; Diameter of zone of inhibition (mm) (Aspergillus niger): 0 mm
O=C(O)Cc1ccccc1Nc1c(Cl)cccc1Cl [Diclofenac sodium, diclofenac sodium, reference compound] |  |  |  |  |  |  | 23.73% |  | 31.15% |  | 38.93% |  | 45.39% |  |  |  | % of Inhibition of Writhing (mice; standard diclofenac sodium, dose column 0.1 ml/10 g (method: 25 mg/kg)): 91.79%
CN1CC[C@]23c4c5ccc(O)c4O[C@H]2[C@@H](O)C=C[C@H]3[C@H]1C5 [morphine, Morphine, reference compound] |  |  |  |  |  |  |  |  |  |  |  |  |  |  |  |  | % Elongation value (Swiss-albino mice): 48.08% and 82.5%
